According to patent US9340549B2, “Oxazolidinone compounds and derivatives thereof” (priority 2012, dated 2016):
pEC50, pIC50: −log10 of the molar value. Like-named read-outs stand apart in the source and are kept apart here. One block for each molecule: values may come before it.

What was measured:
[1] = tested on: Axin2 in SW480 cells; assay: cells; assay type: cell-based; settings: Homo sapiens, read-out: Axin2 384 IF EC50 IP
Experimental: Using a VPrep, 10 μL of compound/controls was transferred from the compound plate to 60 μL in the cell plate (final 0.5% DMSO, 70 μL). The mixture was incubated for 24 hours at 37° C. at 5% CO2.
The extra media was tapped out. 50 μL of 4% paraformaldehyde (Fisher, AA433689M), 0.1% Triton (Sigma, X100-100 ML) in PBS were added, and the mixture was incubated for 15 minutes at room temperature. […] The extra media was tapped out and to this was added 50 μL of buffer containing Axin2 Antibody (Sigma, SAB1100677-200 µL) at 1:10000 in PBS, 0.1% Tween-20, 1% Normal Goat Serum. The mixture was incubated for 2 hours at room temperature or overnight at 4° C. The cells were then washed twice with PBS, 0.1% Tween-20, and 1% Normal Goat Serum. […] The mixture was then incubated for 30 minutes at room temperature. The cells were then washed twice with PBS, 0.1% Tween-20, and 1% Normal Goat Serum. 50-100 μL PBS was added, and the mixture was covered with a plate seal (Fisher, NC9425162). An ArrayScan (a variation of the compartmental analysis protocol was optimized) was used to scan the plates, and data was analyzed using MEAN_RingSpotAvgIntenCh2). The Axin2 accumulation POC was calculated, and the EC50 was determined using Genedata Screener software to report Axin2 activity.

[2] = tested on: total β-catenin in SW480 colorectal cells; assay: cells; assay type: cell-based; settings: Homo sapiens
Experimental: Total β-Catenin MSD 96-Well Plate Assay for SW480 Cells
SW480 colorectal cells were seeded at a density of 10,000/well in CellBIND 96-well plates (Corning catalog no. 3300) in 60 μL of normal growth medium (MEM alpha supplemented with 10% heat inactivated FBS, GlutaMAX, pyruvate, and 10 mM HEPES).
A 10-point, 3-fold dilution series for each TNKS inhibitor was constructed in a 96-well “stock” plate. […] The plates were incubated at 37° C. for 40 to 48 hours. The media was removed from the CellBIND plate via plate inversion and gentle shaking and the inverted plate was touched to a paper towel and immediately placed on ice. […] Plates containing cell lysates were sealed and shaken for one hour at 4° C. and then quickly frozen in a −80° C. for approximately 15 to 30 minutes followed by gradually thawing at 4° C. Finally, lysate containing plates were centrifuged @1000×g (2073 rpm) for 10 minutes at 4° C.
The sealed MSD plate was incubated overnight in a cold room with gentle shaking. The MSD plate was then blocked with 150 μL of Blocker “A” per well and incubated overnight at 4° C. with vigorous shaking. The blocked MSD plate was washed 4 times with 150 μL/well TBS-T wash buffer (150 mM NaCl, 50 mM Tris, pH 7.5, 0.02% Tween-20). Cell lysates (75 μL) were transferred to prepared MSD plates and incubated at 4° C. ON with gentle shaking. […] The detection antibody was incubated for 1 hour at room temperature with vigorous shaking after which plates were washed 3 times with 150 μL/well TBS-T wash buffer. Plates were processed for analysis by the addition of 150 μL/well MSD Read 4× Buffer T with surfactant (catalog no. R92TC-2; diluted 1:3 in deionized water) and were read on the SECTOR Imager 6000.

[3] = molecular target: 6×HIS-tankyrase 1 (1091-1325) (Homo sapiens (Human), UniProt O95271); assay: biochemical; assay type: biochemical; settings: 400 nM NAD, 60 minutes at room temperature, read-out: TNKS1 IP IC50
[4] = SW480, read-out: SW480-Total β-Catenin IC50 IP
[5] = SW480, 24 h, SW480 cells, 24 hours
[6] = SW480 cells, 40 to 48 hours, top concentration 10 μM, read-out: SW480-Total β-Catenin IC50 IP

6×HIS-tankyrase 1 (1091-1325), sequence (O95271 1091-1325): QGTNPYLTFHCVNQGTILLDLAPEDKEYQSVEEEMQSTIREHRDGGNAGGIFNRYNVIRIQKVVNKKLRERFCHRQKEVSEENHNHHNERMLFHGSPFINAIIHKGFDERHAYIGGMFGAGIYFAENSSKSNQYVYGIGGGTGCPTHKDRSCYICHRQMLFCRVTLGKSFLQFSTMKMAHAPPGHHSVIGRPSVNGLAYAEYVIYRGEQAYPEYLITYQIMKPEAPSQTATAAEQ

SMILES: CC1(C)OC(=O)N([C@H]2CC[C@H](c3cc(-c4ncccn4)c[nH]c3=O)CC2)C1c1ccccc1 (mixture of isomers) [Example 7, (+/−)-3-(trans-4-((4S/R)-5,5-Dimethyl-2-oxo-4-phenyl-1,3-oxazolidin-3-yl)cyclohexyl)-5-(2-pyrimidinyl)-2(1H)-pyridinone]
pEC50 ([1]; SW480, 24 h): 5.84
pIC50 [2, 4]: 6.16
pIC50 ([3]; 0.25 nM enzyme): 7.50

SMILES: COc1cccc(C2N(c3ccc(C(=O)Nc4cccc5cccnc45)cc3)C(=O)OC2(C)C)c1 (racemic) [Example 105, (+/−)-(R/S)-4-(4-(3-methoxyphenyl)-5,5-dimethyl-2-oxooxazolidin-3-yl)-N-(quinolin-8-yl)benzamide]
pEC50 [1, 5]: 5.05
pIC50 [2, 6]: 5.49
pIC50 ([3]; 0.25 nM enzyme): 6.82

SMILES: COc1ccc(C2N(c3ccc(C(=O)Nc4cccc5cccnc45)cc3)C(=O)OC2(C)C)cc1 (racemic) [Example 111, (+/−)-(R/S)-4-(4-(4-methoxyphenyl)-5,5-dimethyl-2-oxooxazolidin-3-yl)-N-(quinolin-8-yl)benzamide]
pEC50 [1, 5]: 5.14
pIC50 [2, 6]: 5.61
pIC50 ([3]; 0.25 nM enzyme): 6.20

SMILES: CC1(C)OC(=O)N([C@@H]2CC=C(c3cc(-c4ncccn4)c[nH]c3=O)CC2)[C@H]1c1ccccc1 (single isomer, unassigned) [Example 5]
pEC50 [1, 5]: 6.09
pIC50 [2, 6]: 6.35
pIC50 ([3]; […] enzyme): 7.62

SMILES: CC1(C)OC(=O)N([C@H]2CC=C(c3cc(-c4ncccn4)c[nH]c3=O)CC2)[C@H]1c1ccccc1 (single isomer, unassigned) [Example 6]
pEC50 [1, 5]: 5.58
pIC50 [2, 6]: 6.23
pIC50 ([3]; […] enzyme): 7.33

SMILES: CC1(C)OC(=O)N([C@H]2CC[C@H](c3cnc4[nH]c(=O)n(-c5ncccn5)c4c3)CC2)[C@@H]1c1ccccc1 (single isomer, unassigned) [Example 14]
pEC50 [1, 5]: 5.99
pIC50 [2, 6]: 6.03
pIC50 ([3]; […] enzyme): 7.57

SMILES: C[C@@]1(c2ccccc2)CN([C@H]2CC[C@H](n3c(=O)[nH]c4cnccc43)CC2)C(=O)O1 (single isomer, unassigned) [Example 90]
pEC50 [1, 5]: < 4.60
pIC50 [2, 6]: < 5.00
pIC50 ([3]; […] enzyme): 6.11

SMILES: C[C@]1(c2ccccc2)CN([C@H]2CC[C@H](n3c(=O)[nH]c4cnccc43)CC2)C(=O)O1 (single isomer, unassigned) [Example 91]
pEC50 [1, 5]: 5.35
pIC50 [2, 6]: 5.44
pIC50 ([3]; […] enzyme): 8.05

SMILES: CC1(C)OC(=O)N(c2ccc(-c3cnc(N)c(-c4cnnc(Cl)c4)c3)cc2)[C@H]1c1ccccc1 (single isomer, unassigned) [Example 101]
pEC50 [1, 5]: 6.71
pIC50 [2, 6]: 6.68
pIC50 ([3]; […] enzyme): 7.79

SMILES: CC1(C)OC(=O)N(c2ccc(C(=O)Nc3cccc4cccnc34)cc2)[C@H]1c1ccc(F)cc1 [Example 2, (S)-4-(4-(4-fluorophenyl)-5,5-dimethyl-2-oxooxazolidin-3-yl)-N-(quinolin-8-yl)benzamide]
pEC50 [1, 5]: 5.26
pIC50 [2, 6]: 5.71
pIC50 ([3]; […] enzyme): 6.51

SMILES: CC1(C)OC(=O)N(c2ccc(-c3cc(-c4ncccn4)cnc3F)cc2)[C@H]1c1ccccc1 [Example 3, (S)-3-(4-(2-Fluoro-5-(pyrimidin-2-yl)pyridin-3-yl)phenyl)-5,5-dimethyl-4-phenyloxazolidin-2-one]
pEC50 [1, 5]: < 4.60
pIC50 [2, 6]: 5.76
pIC50 ([3]; […] enzyme): 6.42

SMILES: CC1(C)OC(=O)N(c2ccc(C(=O)Nc3cccc4cccnc34)cc2)[C@H]1c1cccnc1 [Example 11, (S)-4-(5,5-dimethyl-2-oxo-4-(pyridin-3-yl)oxazolidin-3-yl)-N-(quinolin-8-yl)benzamide]
pEC50 [1, 5]: 5.15
pIC50 [2, 6]: 5.82
pIC50 ([3]; […] enzyme): 6.41

SMILES: CC1(C)OC(=O)N([C@H]2CC[C@H](c3cnc(N)c(Nc4ncccn4)c3)CC2)[C@@H]1c1ccccc1 [Example 13, (S)-3-((1r,4S)-4-(6-Amino-5-(pyrimidin-2-ylamino)pyridin-3-yl)cyclohexyl)-5,5-dimethyl-4-phenyloxazolidin-2-one]
pEC50 [1, 5]: < 4.60
pIC50 [2, 6]: < 5.00
pIC50 ([3]; […] enzyme): 5.69

SMILES: CC1(C)OC(=O)N(c2ccc(-n3c(=O)[nH]c4cnccc43)cc2)[C@H]1c1ccccc1 [Example 16, (S)-5,5-dimethyl-3-(4-(2-oxo-2,3-dihydro-1H-imidazo[4,5-c]pyridin-1-yl)phenyl)-4-phenyloxazolidin-2-one]
pEC50 [1, 5]: 5.09
pIC50 [2, 6]: 5.60
pIC50 ([3]; […] enzyme): 6.94

SMILES: CC1(C)OC(=O)N(c2ccc(-n3c(=O)oc4ccccc43)cc2)[C@H]1c1ccccc1 [Example 17, (S)-3-(4-(5,5-dimethyl-2-oxo-4-phenyloxazolidin-3-yl)phenyl)benzo[d]oxazol-2(3H)-one]
pEC50 [1, 5]: < 4.60
pIC50 [2, 6]: < 5.00
pIC50 ([3]; […] enzyme): 5.55

SMILES: CC1(C)OC(=O)N([C@H]2CC[C@H](n3c(=O)[nH]c4cncnc43)CC2)[C@H]1c1ccccc1 [Example 50, (S)-5,5-dimethyl-3-((1r,4S)-4-(8-oxo-7H-purin-9(8H)-yl)cyclohexyl)-4-phenyloxazolidin-2-one]
pEC50 [1, 5]: 6.41
pIC50 [2, 6]: 6.53

pEC50 ([1]; SW480 cells, 24 hours): 6.34
pIC50 [2, 6]: 6.56
SMILES: CC1(C)OC(=O)N([C@H]2CC[C@H](n3c(=O)[nH]c4c(C#N)cccc43)CC2)[C@H]1c1ccccc1 [Example 51, 1-((1S,4r)-4-((S)-5,5-dimethyl-2-oxo-4-phenyloxazolidin-3-yl)cyclohexyl)-2-oxo-2,3-dihydro-1H-benzo[d]imidazole-4-carbonitrile]

pEC50 ([1]; SW480 cells, 24 hours): 6.17
pIC50 [2, 6]: 6.19
SMILES: CC1(C)OC(=O)N([C@H]2CC[C@H](n3c(=O)[nH]c4cc(Br)cnc43)CC2)[C@H]1c1ccccc1 [Example 56, (S)-3-((1r,4S)-4-(6-bromo-2-oxo-1H-imidazo[4,5-b]pyridin-3(2H)-yl)cyclohexyl)-5,5-dimethyl-4-phenyloxazolidin-2-one]

pEC50 ([1]; SW480 cells, 24 hours): 6.10
pIC50 [2, 6]: 6.76
SMILES: CC1(C)OC(=O)N([C@H]2CC[C@H](n3c(=O)[nH]c4cc(C#N)cnc43)CC2)[C@H]1c1ccccc1 [Example 57, 3-((1S,4r)-4-((S)-5,5-dimethyl-2-oxo-4-phenyloxazolidin-3-yl)cyclohexyl)-2-oxo-2,3-dihydro-1H-imidazo[4,5-b]pyridine-6-carbonitrile]

pEC50 ([1]; SW480 cells, 24 hours): 7.21
pIC50 [2, 6]: 7.12
SMILES: CC1(C)OC(=O)N([C@H]2CC[C@H](n3c(=O)[nH]c4c(F)c(C#N)ccc43)CC2)[C@H]1c1ccccc1 [Example 60, 1-((1S,4r)-4-((S)-5,5-dimethyl-2-oxo-4-phenyloxazolidin-3-yl)cyclohexyl)-4-fluoro-2-oxo-2,3-dihydro-1H-benzo[d]imidazole-5-carbonitrile]

pEC50 ([1]; SW480, 24 h): 7.28
pIC50 [2, 4]: 7.04
SMILES: CC1(C)OC(=O)N([C@H]2CC[C@H](c3cnc(N)c(-c4ncccn4)c3)CC2)[C@H]1c1ccccc1 [Example 74, (S)-3-((1r,4S)-4-(6-amino-5-(pyrimidin-2-yl)pyridin-3-yl)cyclohexyl)-5,5-dimethyl-4-phenyloxazolidin-2-one]

pEC50 ([1]; SW480, 24 h): 5.57
pIC50 [2, 4]: 5.80
SMILES: CC1(C)OC(=O)N([C@H]2CC[C@H](c3cnc(N)c(-c4ncccn4)c3)CC2)[C@@H]1c1ccccc1 [Example 75, (R)-3-((1r,4R)-4-(6-amino-5-(pyrimidin-2-yl)pyridin-3-yl)cyclohexyl)-5,5-dimethyl-4-phenyloxazolidin-2-one]

SMILES: CC1(C)OC(=O)N(c2ccc(-c3cc(-c4ncco4)c[nH]c3=O)cc2)[C@H]1c1ccccc1 [Example 116, (S)-5,5-dimethyl-3-(4-(5-(oxazol-2-yl)-2-oxo-1,2-dihydropyridin-3-yl)phenyl)-4-phenyloxazolidin-2-one]
pEC50 [1, 5]: < 5.20
pIC50 [2, 6]: 6.04
